Results: patent US5354862A, “Preparation and the use of halopropargylated cyclic quaternary ammonium compounds as antimicrobial agents” (Rohm and Haas Company, priority 1993, dated 1994)
Read-outs that look alike come from different tables or passages of the source.

Experiments:
Assay in all cases: Broth two-fold serial dilution MIC test
Pseudomonas aeruginosa = type: cell-based, Pseudomonas aeruginosa (ATCC 15442); settings: Psae
Source text: (§1) A minimum inhibitory concentration (MIC) value is obtained using a broth, two-fold serial dilution test performed as follows: A stock solution or dispersion of the test compound, typically at a concentration of 1%, is made in a 5:3:2 solvent solution of acetone. methanol, and water. A volume of the stock solution is dispensed into culture media to give an initial starting test concentration of 500 ppm compound.
(§2) When the test is ready to be done, each vessel in the dilution series, except the first vessel, contains an equal volume of compound free broth. The first vessel contains twice the volume of broth with the starting concentration of test compound. One half of the broth from the first vessel is transferred to the second vessel- After being mixed, one half the resulting volume is removed from the second vessel and transferred to the third vessel. The entire cycle is repeated sufficiently to give a series of concentrations amounting to 500, 250, 125, 63, 31, 16, 8, and 4, 2, 1, 0.5, 0.25 ppm respectively.
(§3) Each vessel is then inoculated with a cell suspension of the appropriate test organism. Bacteria are grown in broth, fungi on agar slants for a time and at a temperature appropriate to the species being tested, and algae are a mixture of green algae and blue-green bacteria grown in a nutrient media. At the end of the growth period, in the case of bacteria, the broth is vortexed to disperse the cells.
(§4) In the case of fungi, the spores are harvested by pipetting water onto the slant and dislodging the spores with a sterile loop. The cell/spore suspension is standardized by controlling incubation time, temperature, and the volume of the diluent. The suspension is then used to inoculate the vessels containing the broth compound.
(§5) The vessels are then incubated at the appropriate temperature. After the incubation, the vessels are examined for growth/no growth. The minimum inhibitory concentration (MIC) is defined as the lowest concentration of compound that results in complete inhibition of growth of the test organism.
1. Pseudomonas aeruginosa

Escherichia coli = type: cell-based, Escherichia coli (ATCC 11229); settings: Ecol
Source text: as §1, §2, §3, §4, §5

Staphylococcus aureus = type: cell-based, Staphylococcus aureus (ATCC 6538); settings: Saur
Source text: as §1, §2, §3, §4, §5
2. Staphylococcus aureus

Aspergillus niger = type: cell-based, Aspergillus niger (ATCC 6275); settings: Anig, TSB media
Source text: as §1, §2, §3, §4, §5
4. Aspergillus niger 6275 Anig

[1] = Pseudomonas aeruginosa, Table 2, M9G media, read-out: MIC
[2] = Pseudomonas aeruginosa, Table 2, TSB media, read-out: MIC
[3] = Escherichia coli, Table 2, TSB media, read-out: MIC
[4] = Staphylococcus aureus, Table 2, M9G media, read-out: MIC
[5] = Staphylococcus aureus, Table 2, TSB media, read-out: MIC
[6] = Aspergillus niger, Table 2, read-out: MIC
[7] = Escherichia coli, Table 2, M9G media, read-out: MIC

Row | SMILES | MIC (Pseudomonas aeruginosa; [1]) | MIC (Pseudomonas aeruginosa; [2]) | MIC (Escherichia coli; [3]) | MIC (Staphylococcus aureus; [4]) | MIC (Staphylococcus aureus; [5]) | MIC (Aspergillus niger; [6]) | MIC (Escherichia coli; [7]) | MIC (Pseudomonas aeruginosa; Table 2, TSB media) | MIC (Escherichia coli; Table 2, M9G media) | MIC (Escherichia coli; Table 2, TSB media) | also measured
1 | OCC[N+]1(CC#CI)CCCC1 [Compound 1, 1-(2-hydroxyethyl)-1-(3-iodopropargyl)-pyrrolidinium 4-methylbenzenesulfonate] | > 250 µg/mL | 125 µg/mL | > 250 µg/mL | 16 µg/mL | 32 µg/mL | > 250 µg/mL | – | – | – | – | –
2 | OCCCCCCCCCCCC[N+]1(CC#CI)CCCC1 [Compound 2, 1-(12-hydroxydodecyl)-l-(3-iodopropargyl)-pyrrolidinium 4-methylbenzenesulfonate] | > 250 µg/mL | > 250 µg/mL | 250 µg/mL | 32 µg/mL | 32 µg/mL | 32 µg/mL | – | – | – | – | –
3 | OCCCCCCCC[N+]1(CC#CI)CCCC1 [Compound 3, 1-(8-hydroxyoctyl)-1-(3-iodopropargyl)-pyrrolidinium 4-methylbenzenesulfonate] | > 500 µg/mL | > 500 µg/mL | > 500 µg/mL | 500 µg/mL | > 500 µg/mL | > 500 µg/mL | – | – | – | – | –
4 | OCCCCCCC[N+]1(CC#CI)CCCC1 [Compound 4, 1-(7-hydroxyheptyl)-1-(3-iodopropargyl)-pyrrolidinium 4-methybenzenesulfonate] | > 500 µg/mL | > 500 µg/mL | 500 µg/mL | 500 µg/mL | 500 µg/mL | 250 µg/mL | > 500 µg/mL | – | – | – | –
5 | OCCCCCCCCC[N+]1(CC#CI)CCCC1 [Compound 5, 1-(9-hydroxynonyl)-1-(3-iodopropargyl)-pyrrolidinium 4-methylbenzenesulfonate] | > 500 µg/mL | > 500 µg/mL | > 500 µg/mL | 63 µg/mL | 63 µg/mL | 250 µg/mL | > 500 µg/mL | – | – | – | –
6 | CCCCCCCCCCCCCC[N+]1(CC#CI)CCCC1 [Compound 6, 1-Tetradecyl-1-(3-Iodopropargyl)-Pyrrolidinium 4-Methylbenzenesulfonate] | – | – | – | 0.5 µg/mL | 0.5 µg/mL | – | – | 4 ppm | 4 ppm | 4 ppm | MIC (Pseudomonas aeruginosa; Pseudomonas aeruginosa, Table 3 comparison, M9G media, read-out: MIC): 4 µg/mL; MIC (Pseudomonas aeruginosa; Pseudomonas aeruginosa, Table 3 comparison, TSB media, read-out: MIC): 4 µg/mL; MIC (Pseudomonas aeruginosa; Table 2, M9G media): 4 ppm; MIC (Escherichia coli; Table 3 comparison, M9G media): 4 ppm; MIC (Escherichia coli; Table 3 comparison, TSB media): 4 ppm; MIC (Staphylococcus aureus; Staphylococcus aureus, Table 3 comparison, M9G media, read-out: MIC): 0.5 µg/mL; MIC (Staphylococcus aureus; Staphylococcus aureus, Table 3 comparison, TSB media, read-out: MIC): 0.5 µg/mL; MIC (Aspergillus niger; Aspergillus niger, Table 3 comparison, read-out: MIC): < 0.25 µg/mL; MIC (Aspergillus niger; Table 2): < 0.25 ppm
7 | CCCCCCCCCCCCCCCC[N+]1(CC#CI)CCCC1 [Compound 7, 1-hexadecyl-1-(3-iodopropargyl)-pyrrolidinium 4-methylbenzenesulfonate] | – | – | – | < 0.25 µg/mL | < 0.25 µg/mL | – | 4 µg/mL | 8 ppm | – | 2 ppm | MIC (Pseudomonas aeruginosa; Table 2, M9G media): 4 ppm; MIC (Aspergillus niger; Table 2): 1 ppm
8 | CCCCCCCCCCCCC[N+]1(CC#CI)CCCC1 [Compound 8, 1-tridecyl-1-(3-iodopropargyl)-pyrrolidinium 4-methylbenzenesulfonate] | 16 µg/mL | – | – | 0.5 µg/mL | – | 1 µg/mL | 2 µg/mL | 16 ppm | – | 4 ppm | MIC (Staphylococcus aureus; Table 2, TSB media): 1 ppm
9 | CCCC[N+]1(CC#CI)CCCC1 [Compound 9, 1-butyl-1-(3-iodopropargyl)-pyrrolidinium 4-methylbenzenesulfonate] | 500 µg/mL | > 500 µg/mL | – | 250 µg/mL | 250 µg/mL | 500 µg/mL | – | – | 500 ppm | 250 ppm | –
10 | CCCCCCCCCCCCCCC[N+]1(CC#CI)CCCC1 [Compound 10, 1-pentadecyl-1-(3-iodopropargyl)-pyrrolidinium 4-methylbenzenesulfonate] | – | – | – | < 0.25 µg/mL | – | < 0.25 µg/mL | – | 250 ppm | 4 ppm | 32 ppm | MIC (Pseudomonas aeruginosa; Table 2, M9G media): 8 ppm; MIC (Staphylococcus aureus; Table 2, TSB media): 1 ppm
11 | CCCCCCCCCC[N+]1(CC#CI)CCCC1 [Compound 11] | 250 µg/mL | 500 µg/mL | – | – | – | 4 µg/mL | – | – | 16 ppm | 32 ppm | MIC (Staphylococcus aureus; Table 2, M9G media): 2 ppm; MIC (Staphylococcus aureus; Table 2, TSB media): 16 ppm
